Source: patent publication US6469051B2, “Diaminorhodamine derivative” (priority 1997, dated 2002)
Values belong to the compound of their own block, whether it stands above or below them.

Assays:
[1] = system: Vascular smooth muscle cells derived from rat arota; test: Imaging of nitric oxide produced by vascular smooth muscle cells; format: cell-based
Method: The normal lines represent fluorescence intensity of each cell and bold lines represent the averages thereof.
Vascular smooth muscle cells derived from rat arota were cultured in a glass bottom dish, and stimulated with LPS (12.5 μg/ml), […] (150 U/ml), IL-1β (25 U/ml) and TNF-α (30 ng/ml) to induce a nitric oxide synthase. The culture was continued for about 12 hours, and then the culture medium was changed to Krebs-Ringer-phosphate buffer (KRP) in which DAR-1EE was dissolved (Example 2, 10 μM) to allow uptake of […] by the cells. The cells were cultured at 37° C. for 1 hour, and washed, and the culture medium was changed to KRP in which L-Arg or L-NMMA was dissolved. Changes in intracellular fluorescence with time was observed under a fluorescence microscope (Ex. 530-560 nm, Em. 550-610 nm, magnification: ×20).

[2] = Changes in sensitivity (absorbance, fluorescence intensity) at varying pHs; format: physicochemical; conditions: about 1 μM in 78 mM phosphate buffer, neutral to weakly acidic, approximately pH 4; Ex. 565 nm-Em. 580 nm
Method: DAR-1T was dissolved in purified water to prepare a solution of a concentration of 100 μM. The solution was added to phosphate buffer (78 mM) adjusted to each pH at a final concentration of about 1 μM, and absorbance and fluorescence intensity were measured. The measurement wavelengths of fluorescence were set to Ex. 565 nm-Em. 580 nm. In the figure, (a) represent the results of the absorptiometric measurement and (b) represents the results of fluorescence intensity measurement.

[3] = Fluorescence maximum wavelengths; format: physicochemical
Description: Maximum wavelengths: Ex. 565 nm-Em. 580 nm

[4] = buffer, pH 7.4; cited from earlier work

cellular uptake and intracellular hydrolysis ([1]; 10 μM in KRP, 37° C., 1 hour): uptaken into the cells and hydrolyzed
Structure (SMILES): CCOC(=O)c1c(-c2c3ccc(=[N+](CC)CC)cc-3oc3cc(N(CC)CC)ccc23)ccc(N)c1N [DAR-1EE, [9-(3,4-diamino-2-ethoxycarbonylphenyl)-6-diethylamino-3H-xanthen-3-ylidene]diethyliminium]
intracellular fluorescence intensity with time, nitric oxide producing cells ([1]; 10 μM DAR-1EE loaded 1 hour at 37° C., stimulated cells (LPS, INF, IL-1β, TNF-α), 1 mM L-Arg): Fluorescence intensity increased with time | intracellular fluorescence intensity with time, cells producing no nitric oxide (non-stimulated) ([1]; 10 μM DAR-1EE loaded, non-stimulated cells, 1 mM L-Arg): substantially no change in fluorescence intensity | intracellular fluorescence intensity with time, cells added with the NOS inhibitor ([1]; 10 μM DAR-1EE loaded, stimulated cells, 1 mM L-Arg+10 mM NMMA): substantially no change in fluorescence intensity

fluorescence intensity as a function of pH [2]: no changes in fluorescence intensity | Maximum wavelength Em. ([3]; emission): 580 nm | Maximum wavelength Ex. ([3]; excitation): 565 nm
Structure (SMILES): CCN(CC)c1ccc2c(-c3ccc4nn[nH]c4c3C(=O)O)c3ccc(=[N+](CC)CC)cc-3oc2c1 [DAR-1T, [9-(7-carboxybenzotriazol-6-yl)-6-diethylamino-3H-xanthen-3-ylidene]diethyliminium]

Structure (SMILES): CCNCCN(CC)N(O)N=O [NOC-12]
half life [4]: 5.45 h
